Measurements taken from PubChem BioAssay AID1919016 (Molecular Pharmacology Branch, DTP, NCI, 2023).

Test system: NCI-H196 complex spheroid growth, percent test/control
Assay: Anticancer human tumor NCI-H196 cell line growth inhibition [AhR];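 further: seven days of drug exposure starting three days after plating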;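 on viability, T/C: 100% = DMSO vehicle control wells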
Settings: for IC50: curve of first compound; for viability, T/C: stronger effect = lower value
Outline: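 Spheroids combined tumor cells with HUVEC endothelial cells and human MSCs as stroma. AhR antagonists were paired with standard or investigational drugs, each dosed in half-log steps down from near clinical Cmax, or from 10 microM where Cmax was unknown.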

[1] = second compound 0.1 µM, first compound 0.0316 µM
[2] = second compound 0.1 µM, first compound 0.1 µM
[3] = second compound 0.1 µM, first compound 0.316 µM
[4] = second compound 0.1 µM, first compound 1 µM
[5] = second compound 0.1 µM, first compound 3.16 µM
[6] = second compound 0.1 µM, first compound 10 µM
[7] = second compound 0.316 µM, first compound 0.0316 µM
[8] = second compound 0.316 µM, first compound 0.1 µM
[9] = second compound 0.316 µM, first compound 0.316 µM
[10] = second compound 0.316 µM, first compound 1 µM
[11] = second compound 0.316 µM, first compound 3.16 µM
[12] = second compound 0.316 µM, first compound 10 µM
[13] = second compound 1 µM, first compound 0.0316 µM
[14] = second compound 1 µM, first compound 0.1 µM
[15] = second compound 1 µM, first compound 0.316 µM
[16] = second compound 1 µM, first compound 1 µM
[17] = second compound 1 µM, first compound 3.16 µM
[18] = second compound 1 µM, first compound 10 µM
[19] = second compound 3.16 µM, first compound 0.0316 µM
[20] = second compound 3.16 µM, first compound 0.1 µM
[21] = second compound 3.16 µM, first compound 0.316 µM
[22] = second compound 3.16 µM, first compound 1 µM
[23] = second compound 3.16 µM, first compound 3.16 µM
[24] = second compound 3.16 µM, first compound 10 µM
[25] = second compound 10 µM, first compound 0.0316 µM
[26] = second compound 10 µM, first compound 0.1 µM
[27] = second compound 10 µM, first compound 0.316 µM
[28] = second compound 10 µM, first compound 1 µM
[29] = second compound 10 µM, first compound 3.16 µM
[30] = second compound 10 µM, first compound 10 µM
[31] = second compound 0.1 µM, first compound 0.00316 µM
[32] = second compound 0.1 µM, first compound 0.01 µM
[33] = second compound 0.316 µM, first compound 0.00316 µM
[34] = second compound 0.316 µM, first compound 0.01 µM
[35] = second compound 1 µM, first compound 0.00316 µM
[36] = second compound 1 µM, first compound 0.01 µM
[37] = second compound 3.16 µM, first compound 0.00316 µM
[38] = second compound 3.16 µM, first compound 0.01 µM
[39] = second compound 10 µM, first compound 0.00316 µM
[40] = second compound 10 µM, first compound 0.01 µM

CC(C)c1c(-c2ccccc2)nc2c(C#N)c[nH]n2c1=O + Cc1ccccc1N=Nc1ccc(NC(=O)c2ccnn2C)c(C)c1
IC50 (second compound 0.1 µM): > 10000 nM
IC50 (second compound 0.316 µM): > 10000 nM
IC50 (second compound 1 µM): > 10000 nM
IC50 (second compound 3.16 µM): > 10000 nM
IC50 (second compound 10 µM): > 10000 nM
viability, T/C [1]: 103%
viability, T/C [2]: 104%
viability, T/C [3]: 89.5%
viability, T/C [4]: 99.1%
viability, T/C [5]: 112%
viability, T/C [6]: 97.9%
viability, T/C [7]: 95.6%
viability, T/C [8]: 99.4%
viability, T/C [9]: 99.4%
viability, T/C [10]: 93.6%
viability, T/C [11]: 103%
viability, T/C [12]: 88.7%
viability, T/C [13]: 97.7%
viability, T/C [14]: 96.9%
viability, T/C [15]: 101%
viability, T/C [16]: 97%
viability, T/C [17]: 99.3%
viability, T/C [18]: 104%
viability, T/C [19]: 109%
viability, T/C [20]: 100%
viability, T/C [21]: 101%
viability, T/C [22]: 96.3%
viability, T/C [23]: 94.9%
viability, T/C [24]: 104%
viability, T/C [25]: 95%
viability, T/C [26]: 98%
viability, T/C [27]: 96.5%
viability, T/C [28]: 95.7%
viability, T/C [29]: 96.1%
viability, T/C [30]: 95.7%

CC1COCCN1c1cc(-c2ccnn2C)c2ccnc(-c3ccn[nH]3)c2n1 (stereo not given) + Cc1ccccc1N=Nc1ccc(NC(=O)c2ccnn2C)c(C)c1
IC50 (second compound 0.1 µM): > 1000 nM
IC50 (second compound 0.316 µM): > 1000 nM
IC50 (second compound 1 µM): > 1000 nM
IC50 (second compound 3.16 µM): > 1000 nM
IC50 (second compound 10 µM): > 1000 nM
viability, T/C [31]: 96.4%
viability, T/C [32]: 90.9%
viability, T/C [1]: 86%
viability, T/C [2]: 66%
viability, T/C [3]: 58.3%
viability, T/C [4]: 53%
viability, T/C [33]: 98.9%
viability, T/C [34]: 96.1%
viability, T/C [7]: 87.5%
viability, T/C [8]: 71.3%
viability, T/C [9]: 52.2%
viability, T/C [10]: 52.7%
viability, T/C [35]: 85.2%
viability, T/C [36]: 94.5%
viability, T/C [13]: 85.5%
viability, T/C [14]: 71.1%
viability, T/C [15]: 56%
viability, T/C [16]: 52.1%
viability, T/C [37]: 89.2%
viability, T/C [38]: 94.2%
viability, T/C [19]: 91.5%
viability, T/C [20]: 70.5%
viability, T/C [21]: 56.6%
viability, T/C [22]: 49.9%
viability, T/C [39]: 96.8%
viability, T/C [40]: 88.9%
viability, T/C [25]: 77.9%
viability, T/C [26]: 74.6%
viability, T/C [27]: 63.4%
viability, T/C [28]: 52.8%

COc1ccc([C@@H](O)c2cc(-c3ncnc4cc(N5CCOCC5)ccc34)c(F)cc2Cl)nn1 + Cc1ccccc1N=Nc1ccc(NC(=O)c2ccnn2C)c(C)c1
IC50 (second compound 0.1 µM): > 10000 nM
IC50 (second compound 0.316 µM): > 10000 nM
IC50 (second compound 1 µM): > 10000 nM
IC50 (second compound 3.16 µM): > 10000 nM
IC50 (second compound 10 µM): > 10000 nM
viability, T/C [1]: 97.4%
viability, T/C [2]: 92.5%
viability, T/C [3]: 96%
viability, T/C [4]: 81.8%
viability, T/C [5]: 72.8%
viability, T/C [6]: 65.4%
viability, T/C [7]: 95.3%
viability, T/C [8]: 102%
viability, T/C [9]: 90%
viability, T/C [10]: 78.3%
viability, T/C [11]: 68.9%
viability, T/C [12]: 68%
viability, T/C [13]: 85.7%
viability, T/C [14]: 88%
viability, T/C [15]: 88.6%
viability, T/C [16]: 89.3%
viability, T/C [17]: 72.6%
viability, T/C [18]: 66.6%
viability, T/C [19]: 97.3%
viability, T/C [20]: 96.8%
viability, T/C [21]: 86.8%
viability, T/C [22]: 77.1%
viability, T/C [23]: 74.6%
viability, T/C [24]: 65.1%
viability, T/C [25]: 88.1%
viability, T/C [26]: 83.8%
viability, T/C [27]: 79.4%
viability, T/C [28]: 73.1%
viability, T/C [29]: 76.5%
viability, T/C [30]: 60.3%

COc1cccc2c1C(=O)c1c(O)c3c(c(O)c1C2=O)CC(O)(C(=O)CO)CC3OC1CC(N)C(O)C(C)O1 (stereo not given) + Cc1cncc(-c2nc(NCCc3c[nH]c4ccccc34)c3ncn(C(C)C)c3n2)c1
IC50 (second compound 0.1 µM): 545 nM
IC50 (second compound 0.316 µM): 528 nM
IC50 (second compound 1 µM): 458 nM
IC50 (second compound 3.16 µM): 414 nM
IC50 (second compound 10 µM): 330 nM
viability, T/C [1]: 117%
viability, T/C [2]: 102%
viability, T/C [3]: 72.1%
viability, T/C [4]: 27.3%
viability, T/C [5]: 2.2%
viability, T/C [6]: 2.04%
viability, T/C [7]: 109%
viability, T/C [8]: 115%
viability, T/C [9]: 77.3%
viability, T/C [10]: 15.7%
viability, T/C [11]: 0.7%
viability, T/C [12]: 1.46%
viability, T/C [13]: 110%
viability, T/C [14]: 106%
viability, T/C [15]: 66.3%
viability, T/C [16]: 15.6%
viability, T/C [17]: 0.61%
viability, T/C [18]: 3.01%
viability, T/C [19]: 119%
viability, T/C [20]: 95.9%
viability, T/C [21]: 66.2%
viability, T/C [22]: 6.46%
viability, T/C [23]: 1.24%
viability, T/C [24]: 2.12%
viability, T/C [25]: 94.2%
viability, T/C [26]: 77.8%
viability, T/C [27]: 53.6%
viability, T/C [28]: 2.32%
viability, T/C [29]: 0.59%
viability, T/C [30]: 1.88%

Nc1ncn(C2CC(O)C(CO)O2)c(=O)n1 (stereo not given) + Cc1cncc(-c2nc(NCCc3c[nH]c4ccccc34)c3ncn(C(C)C)c3n2)c1
IC50 (second compound 0.1 µM): > 1000 nM
IC50 (second compound 0.316 µM): > 1000 nM
IC50 (second compound 1 µM): > 1000 nM
IC50 (second compound 3.16 µM): > 1000 nM
IC50 (second compound 10 µM): > 1000 nM
viability, T/C [31]: 110%
viability, T/C [32]: 105%
viability, T/C [1]: 104%
viability, T/C [2]: 97.9%
viability, T/C [3]: 107%
viability, T/C [4]: 99.8%
viability, T/C [33]: 106%
viability, T/C [34]: 98.5%
viability, T/C [7]: 114%
viability, T/C [8]: 104%
viability, T/C [9]: 105%
viability, T/C [10]: 105%
viability, T/C [35]: 122%
viability, T/C [36]: 106%
viability, T/C [13]: 115%
viability, T/C [14]: 96.3%
viability, T/C [15]: 117%
viability, T/C [16]: 103%
viability, T/C [37]: 102%
viability, T/C [38]: 112%
viability, T/C [19]: 109%
viability, T/C [20]: 111%
viability, T/C [21]: 108%
viability, T/C [22]: 109%
viability, T/C [39]: 96.2%
viability, T/C [40]: 86.9%
viability, T/C [25]: 104%
viability, T/C [26]: 89.6%
viability, T/C [27]: 87.8%
viability, T/C [28]: 86.1%
